Key:
Type in all cases: cell-based, Mouse
[1] = tested on: 3T3-L1 adipocytes; test: Triglyceride degradation in adipocytes (glycerol quantification); conditions: FIG. 9; HTGT 10, 50 or 100 μg/mL, IBMX 500 μM; 4 hours
[2] = tested on: brown adipocyte-associated markers (Ucp1, Cidea, Cox8b, Dio2, Elovl3, Pgc1a, Prdm16); test: Brown adipocyte-associated marker gene expression (qPCR) in adipocytes; conditions: FIG. 14; GCG 0.1, 1, 5, 10 or 20 μM; 24 hours
Excerpt: After extracting RNA using Trizol™ reagent (Thermo Fisher Scientific), cDNA was synthesized using a RevertAid™ 1st strand cDNA synthesis kit (Thermo Fisher Scientific). Then, the expression level of target genes was quantified by CFX96 real-time quantitative PCR (qPCR; Bio-Rad) using a housekeeping gene (cyclophilin).

[3] = tested on: 3T3-L1 adipocytes; test: Oxygen consumption rate (XF analyzer) in adipocytes; conditions: FIG. 18; 20 μM GCG, 24 hours; with oligomycin, FCCP, rotenone/antimycin A; normalized to protein
Protocol: Mouse-derived 3T3-L1 adipocytes (American Type Culture Collection, ATCC) were cultured in an incubator using DMEM (Dulbecco's modified Eagle's medium; Sigma-Aldrich) containing 10% bovine calf serum (BCS; HyClone) and 1% penicillin/streptomycin (P/S; Sigma-Aldrich) under a standard condition (37° C., 5% CO2). For cellular differentiation, 48 hours after the cells were filled 100% on a plate, they were cultured again for 48 hours after replacing the medium with DMEM supplemented with 10% fetal bovine serum (FBS; Hyclone), 1% P/S, 0.5 mM 3-isobutyl-1-methylxanthine (IBMX; Sigma-Aldrich), 1 μM dexamethasone (Sigma-Aldrich) and 5 μg/mL insulin (Sigma-Aldrich). Then, differentiation of adipocytes was induced by culturing the cells additionally for 10 days while replacing the medium with a medium supplemented with 10% FBS, 5 μg/mL insulin and 1% P/S at two-day intervals.
The adipocytes differentiated as in Reference Example 1 were treated with 20 μM gallocatechin gallate (GCG), which is contained in large quantities particularly in the heat-transformed green tea extract (HTGT) (Table 2), for 24 hours. A negative control group was treated with a vehicle (distilled water).
Then, oxygen level and oxygen consumption rate (OCR) were measured using an XF analyzer (Agilent, Santa Clara, Calif., USA). […]

| Compound | degradation of triglycerides in adipocytes (glycerol produced) [1] | expression of Elovl3 [2] | expression of Prdm16 [2] | expression of uncoupling protein 1 (Ucp1) [2] | oxygen consumption rate (OCR) [3] |
| --- | --- | --- | --- | --- | --- |
| CC(C)Cn1c(=O)n(C)c(=O)c2[nH]cnc21 [IBMX, 3-isobutyl-1-methylxanthine] | facilitating the degradation of triglycerides in adipocytes |  |  |  |  |
| O=C(O[C@@H]1Cc2c(O)cc(O)cc2O[C@H]1c1cc(O)c(O)c(O)c1)c1cc(O)c(O)c(O)c1 [GCG, gallocatechin gallate] |  | increased the expression of the fat degradation-associated Elovl3 | not changed significantly | increased the expression | increased OCR |

From US20220218778A1, “COMPOSITION FOR REDUCING BODY FAT COMPRISING GREEN TEA EXTRACT CONTAINING GALLOCATECHIN GALLATE AS AN ACTIVE INGREDIENT AND MANUFACTURING METHOD THEREOF” (AMOREPACIFIC CORPORATION, priority 2021, published 2022)
